Laboratory results published in patent US20240118265A1, “MATERIALS AND METHODS TO IMPROVE IN VITRO TOXICITY PREDICTIONS” (priority 2022, published 2024).
Where two headings read alike, the source gives them in different places.

How the values were obtained:
[1] = system: RhCE tissues; conditions: without DM test; cited from earlier work
[2] = system: eye; conditions: cited from earlier work
[3] = Depth of Migration (DM) test; format: physicochemical
[4] = system: cultured epithelium; conditions: cited from earlier work
[5] = system: bovine cornea; conditions: cited from earlier work
[6] = system: isolated chicken eye; conditions: without DM test; cited from earlier work
[7] = 1:100 dilution in DM dye solution, 30 μL, 15° platform, after 30-120 seconds, table value

Molecule	in vivo GHS ([2]; GHS category)	DM Distance Traveled [3, 7] [cm]	in vivo GHS ([2]; rabbit, in vivo)	other results
Cc1c(COC(=O)[C@@H]2[C@H](/C=C(\Cl)C(F)(F)F)C2(C)C)cccc1-c1ccccc1 (racemic) [Bifenthrin]	Cat. 2	4.5	–	EpiOcular prediction versus in vivo [1]: false negatives
CCCCOc1ccc(OCCCC)cc1 [1,4-dibutoxy benzene]	Cat. 2	4.5	–	EpiOcular prediction versus in vivo [1]: false negatives
CCCOCC(C)OCC(C)O (stereo not drawn) [1-(1-methyl-2-propoxyethoxy)propan-2-ol]	–	–	Cat. 2	Short Time Exposure (STE) prediction versus in vivo [4]: false negatives; DM Distance Traveled [3]: 4.5 cm
CC(C)(O)CCC(C)(C)O [2,5-Dimethyl-2,5-hexanediol]	Cat. 1	4.5	–	Short Time Exposure (STE) prediction versus in vivo ([4]; without DM test): false negatives
O=C(Cl)c1c(Cl)cccc1Cl [2,6-Dichlorobenzoyl chloride]	Cat. 2	4.5	–	Short Time Exposure (STE) prediction versus in vivo ([4]; without DM test): false negatives
CC(C)(C)CC(C)(C)c1ccc(O)cc1 [4-(1,1,3,3-Tetramethylbutyl)phenol]	Cat. 1	–	–	BCOP prediction versus in vivo ([5]; without DM test): false negatives; DM Distance Traveled [3]: 4.5 cm
O=Cc1ccc(C(=O)O)cc1 [4-carboxybenzaldehyde]	Cat. 2	4.5	–	ICE prediction versus in vivo [6]: false negatives
CC(=O)O[C@H]1NC(=O)[C@@H]1[C@@H](C)O[Si](C)(C)C(C)(C)C [(2R,3R)-3-((R)-1-(tert-Butyldimethylsiloxy)ethyl)-4-oxoazetidin-2-yl acetate]	Cat. 2	4.5	–	BCOP prediction versus in vivo ([5]; without DM test): false negatives
C=C1C2CCC(C2)C1(C)C (stereo not drawn) [Camphene]	–	4.5	–	–
CCO [Ethanol]	Cat. 2	4.5	–	Short Time Exposure (STE) prediction versus in vivo ([4]; without DM test): false negatives
CCOC(=O)CC(=O)c1cc(F)c(Cl)nc1Cl [Ethyl 2,6-dichloro-5-fluoro-beta-oxo-3-pyridine propionate]	–	4.5	Cat. 2	BCOP prediction versus in vivo [5]: false negatives
C=CC(=O)OCCO [Hydroxyethyl acrylate]	–	–	–	DM Distance Traveled [3]: 4.5 cm
c1ccc2c(c1)CCc1ccccc1N2 [Iminodibenzyl]	–	4.5	Cat. 1	EpiOcular prediction versus in vivo [1]: false negatives
CC(C)O [Isopropanol]	Cat. 2	4.5	–	Short Time Exposure (STE) prediction versus in vivo ([4]; without DM test): false negatives
N[C@@H](CC(=O)O)C(=O)O [L-Aspartic acid]	–	4.5	–	–
COC(C)=O [Methyl acetate]	Cat. 2	4.5	–	Short Time Exposure (STE) prediction versus in vivo ([4]; without DM test): false negatives
COC(=O)CC#N [Methyl cyanoacetate]	Cat. 2	4.5	–	Short Time Exposure (STE) prediction versus in vivo ([4]; without DM test): false negatives; EpiOcular prediction versus in vivo [1]: false negatives; ICE prediction versus in vivo [6]: false negatives
CCCCCCCCCCCCCCO [Myristyl alcohol]	–	4.5	Cat. 2	Short Time Exposure (STE) prediction versus in vivo [4]: false negatives
C/C=C/C=C/C(=O)[O-].[K+] [Potassium sorbate]	–	–	Cat. 2	Short Time Exposure (STE) prediction versus in vivo [4]: false negatives; DM Distance Traveled [3]: 4.5 cm
CCN(CC)CCCC(C)Nc1c2ccc(Cl)cc2nc2ccc(OC)cc12 (stereo not drawn) [Quinacrine]	–	4.5	Cat. 1	BCOP prediction versus in vivo ([5]; without DM test): false negatives
O=C([O-])c1ccccc1O.[Na+] [Sodium salicylate]	–	–	Cat. 1	Short Time Exposure (STE) prediction versus in vivo [4]: false negatives; DM Distance Traveled [3]: 4.5 cm
Triton X-100 (10%)	–	–	–	known ocular irritancy class of the chemical ([2]; reference classification): ocular corrosive
